Data set [1] relates to D. rerio embryos. As to the kind of experiment: D. rerio embryotoxicity assay, direct application of ring-open photoform. The class given is in vivo, Danio rerio. The settings on record: direct application of 1 or ring-open photoform, zebrafish embryos at 3 dpf, final DMSO 0.2%, ambient light, value ± STD; for LD50 (open)^1h: 1 h incubation, 12–15 or 18–20 embryos; for LD50 (open)^3h: 3 h incubation; for LD50 (open)^24h: 24 h incubation. As for the experimental part:
(§1) To establish the assay for screening the photoswitchable peptides, we first studied the toxicity of our prototype 2 by varying the assay conditions. The parent peptide GS 1 was used as a control. […] We measured the doses causing the death of 50% embryos (LD50). We tested two different assay variations: in one version, the LD50(open) was determined after direct application of 1 or of the ring-open form of 2. In the other variant, the photoswitchable peptide was applied in the ring-closed photoform in the darkness, its LD50(closed) was recorded, and then in situ illumination (“photoactivation”) was applied to switch into the ring-open photoform and obtain the respective LD50(opened) values (see Figure 2 for the study design and the killing curves).
(§2) Figure 2 Two versions of the D. rerio embryotoxicity assay for DAE-modified peptides: timelines, peptide photostates, ages of larvae, and definitions of the measured characteristics. (A) Direct application of the non-photoswitchable parent GS 1 or of the ring-open photoform of our prototype 2, and the corresponding killing curves for 1 (C, top, black) and 2 (C, bottom, red). (B) “Photoactivation” assay: initial application of the ring-closed photoform, incubation in darkness, followed by in situ photoconversion into the ring-open(ed) photoform, with the corresponding killing curves for 1 (D, top) and 2 (D, bottom, green for ring-closed, red for ring-open isomers). The latter panel illustrates the “phototherapeutic safety window” (green arrow) as the difference in toxicity between the ring-closed and the ring-open isomers upon photoactivation.
(§3) Each time, 12–15 or 18–20 zebrafish embryos at 3 dpf were treated by applying the corresponding peptide dissolved in dimethyl sulfoxide (final dimethyl sulfoxide concentration was 0.2%). Double-concentrated peptide stock solutions (64–512 µg/mL) were prepared by weighing lyophilized peptides, dissolving in 10% dimethyl sulfoxide and constructing two-fold dilution series with ten–eleven dilution steps. In the photoconversion experiments, in order to prevent spontaneous photoswitching of the ring-closed peptides by vis light, zebrafish embryos and peptides were kept in the dark before the first readout, and the vials were sealed to avoid evaporation of the embryonic medium (E3) at prolonged incubation times. After the first screen, without exchanging any solution, the vials with embryos and ring-closed photoforms were exposed to intense illumination for 10 min (LUMATEC Superlite 410 light source, λ = 570 nm, irradiance approximately 20 mW/cm^2). Mortality was then determined under ambient light conditions at 1 h and 24 h after the illumination procedure.

The test system of data set [2] is D. rerio embryos. As to the kind of experiment: D. rerio embryotoxicity "photoactivation" assay (ring-closed photoform in darkness, then in situ photoconversion). The class given is in vivo, Danio rerio. The following applies: for LD50 (opened)^1h / LD50 (opened)^24h: after 24 h with ring-closed form in dark, in situ illumination 10 min, λ = 570 nm, approx. 20 mW/cm^2; for LD50 (opened)^1h: mortality 1 h after illumination, embryos 4 dpf; for LD50 (opened)^24h: mortality 24 h after illumination, embryos 5 dpf at readout; for LD50(closed)^24h/LD50(open)^24h ratio: phototherapeutic safety window, ring-closed 24 h LD50 (dark) divided by ring-open 24 h LD50 (direct application); for LD50 (closed)^24h: ring-closed photoform applied to embryos at 3 dpf, 24 h in the dark. The method, then:
as §1, §2, §3

A short description of data set [3]: observed water solubility and aggregation. The class given is physicochemical. The settings on record: ring-open form; observation in words. From the text: We have also analyzed the correlation between the empirical low-pH hydrophobicity of the peptides (as assessed from the retention times in reversed-phase HPLC) and toxicity against zebrafish embryos. Independent on the photoisomeric state and the type of toxicity assay, decreasing polarity of the peptides is accompanied by an increase in toxicity against zebrafish embryos (compare Figure 3A and 3B). Within the different series of peptides (the series are marked with different colors in Figure 3 for clarity) we get almost linear toxicity–hydrophobicity correlations in most cases, and all the outliers are readily explainable.

The mark [4] stands for this setting: sealed vials, E3 medium, 0.2% DMSO, value ± STD.

“And” between values parts separate entries of the source, which are not always exact repeats. Equal values may be shown once. Marks after values point to notes of the source that are not given here. Starred links: 1 amine or outer side, 2 acyl side, 3 side chain; linkers in the order of their positions; H or OH if unused. Positions of bridges follow the written chain, without caps; N, C: chain ends. Non-standard residues stand in square brackets, D forms with d. Residues, ends and D or L forms follow the SMILES beside them. *: point of attachment. X2 = Cc1sc(C(=O)[C@@H]2CCCN2[*:2])cc1C1=C(c2cc(C(=O)[*:1])sc2C)CCC1; Leu(3R-OH) = CC(C)[C@@H](O)[C@H](N)C(=O)O; X1 = CCCCN([C@@H](CC(C)C)C(=O)[*:2])[*:1]; Isobutyryl = CC(C)C(=O)*; Orn = NCCC[C@H](N)C(=O)O; Dab = NCC[C@H](N)C(=O)O

On to `CCCCN1C(=O)[C@@H](Cc2ccccc2)NC(=O)[C@H](CC(C)C)NC(=O)[C@H](CCCN)NC(=O)[C@H]([C@@H](C)CC)NC(=O)c2cc(c(C)s2)C2=C(CCC2)c2cc(sc2C)C(=O)[C@@H]2CCCN2C(=O)[C@H](CC(C)C)NC(=O)[C@H](CCCN)NC(=O)[C@H]([C@@H](C)CC)NC(=O)[C@@H]1CC(C)C` [Peptide 11] (I[Orn]L[dF][X1]I[Orn]L; linker N-C via X2), for which, in data set [1], the “LD50 (open)^1h” value is 3.0 ± 1.8 µg/mL, the “LD50 (open)^3h” value is reported as 2.4 ± 0.7 µg/mL and the “LD50 (open)^24h” value is reported as 1.6 ± 0.1 µg/mL. In addition, in data set [2] (value ± STD), the “LD50 (opened)^1h” value is on record as 4.0 ± 0.3 µg/mL and the “LD50 (opened)^24h” value is listed as 3.0 ± 1.0 µg/mL. Further, in data set [2], the “LD50(closed)^24h/LD50(open)^24h ratio” value is listed as 2.8. The “LD50 (closed)^24h” value in data set [2] (setting [4]) was 4.4 ± 0.2 µg/mL. In data set [3], the “water solubility and aggregation” value is “very low water solubility and tendency to aggregate”.

In the case of `Cc1sc2cc1C1=C(CCC1)c1cc(sc1C)C(=O)[C@@H]1CCCN1C(=O)[C@H](C(C)C)NC(=O)[C@H](CCCN)NC(=O)[C@H]([C@H](O)C(C)C)NC(=O)[C@@H]1CCCN1C(=O)[C@@H](Cc1ccccc1)NC(=O)[C@H](C(C)C)NC(=O)[C@H](CCCN)NC(=O)[C@H](C(C)C)NC2=O` [Peptide 13] (V[Orn]V[dF]P[Leu(3R-OH)][Orn]V; linker N-C via X2), in data set [1], the “LD50 (open)^1h” value is 4.8 ± 3.8 µg/mL, the “LD50 (open)^3h” value is 4.3 ± 3.8 µg/mL and the “LD50 (open)^24h” value worked out at 2.2 ± 1.0 µg/mL. Also, in data set [2] (value ± STD), the “LD50 (opened)^1h” value is listed as 6.4 ± 0.4 µg/mL and the “LD50 (opened)^24h” value is reported as 3.4 ± 0.5 µg/mL. The “LD50(closed)^24h/LD50(open)^24h ratio” value in data set [2] is 20.5. In addition, in data set [2] (measurement performed once, STD not calculated), the “LD50 (closed)^24h” value is given as 45.0^b µg/mL.

On to “DAE-OrnN3-OLfPVOL (bicyclic or more) [Peptide 20, "click"-chemistry connected homodimer of DAE-modified macrocycle (series v)]”, for which, in data set [1], the “LD50 (open)^1h” value amounted to 3.7 ± 1.9 µg/mL, the “LD50 (open)^3h” value was determined as 3.7 ± 1.9 µg/mL and the “LD50 (open)^24h” value is 1.5 ± 0.0 µg/mL. Besides, in data set [2] (value ± STD), the “LD50 (opened)^1h” value is 8.4 ± 3.3 µg/mL and the “LD50 (opened)^24h” value was determined as 3.5 ± 0.6 µg/mL. Moreover, in data set [2], the “LD50(closed)^24h/LD50(open)^24h ratio” value was found to be 7.1. Besides, the “LD50 (closed)^24h” value in data set [2] (setting [4]) was 10.7 ± 0.1 µg/mL.

With `Cc1sc2cc1C1=C(CCC1)c1cc(sc1C)C(=O)[C@@H]1CCCN1C(=O)[C@H](C(C)C)NC(=O)[C@H](CCCN)NC(=O)[C@H](C(C)C)NC(=O)[C@@H]1CCCN1C(=O)[C@@H](Cc1ccccc1)NC(=O)[C@H](C(C)C)NC(=O)[C@H](CCCN)NC(=O)[C@H]([C@@H](C)O)NC2=O` [Peptide 6] (T[Orn]V[dF]PV[Orn]V; linker N-C via X2), in data set [1], the “LD50 (open)^1h” value is given as 30.8 ± 15.0 µg/mL, the “LD50 (open)^3h” value was determined as 13.2 ± 13.3 µg/mL and the “LD50 (open)^24h” value was 8.6 ± 0.0 µg/mL. In addition, in data set [2] (value ± STD), the “LD50 (opened)^1h” value was determined as 20.6 ± 1.7 µg/mL and the “LD50 (opened)^24h” value is 6.3 ± 2.3 µg/mL. In addition, the “LD50(closed)^24h/LD50(open)^24h ratio” value in data set [2] was found to be 22.9.

With `Cc1sc2cc1C1=C(CCC1)c1cc(sc1C)C(=O)[C@@H]1CCCN1C(=O)[C@H](C)NC(=O)[C@H](CCCN)NC(=O)[C@H](C(C)C)NC(=O)[C@@H]1CCCN1C(=O)[C@@H](Cc1ccccc1)NC(=O)[C@H](CC(C)C)NC(=O)[C@H](CCCN)NC(=O)[C@H](C(C)C)NC2=O` [Peptide 3], in data set [1], the “LD50 (open)^1h” value came to 9.3 ± 7.8 µg/mL, the “LD50 (open)^3h” value came to 4.8 ± 3.9 µg/mL and the “LD50 (open)^24h” value was determined as 4.7 ± 0.1 µg/mL. In data set [2] (value ± STD), the “LD50 (opened)^1h” value is given as 9.5 ± 1.3 µg/mL and the “LD50 (opened)^24h” value is on record as 6.2 ± 0.6 µg/mL. Also, in data set [2], the “LD50(closed)^24h/LD50(open)^24h ratio” value stood at 6.6. For the same molecule, in data set [2] (setting [4]), the “LD50 (closed)^24h” value is reported as 31.1 ± 4.2 µg/mL.

Regarding `Cc1sc2cc1C1=C(CCC1)c1cc(sc1C)C(=O)[C@@H]1CCCN1C(=O)[C@H](C(C)C)NC(=O)[C@H](CCCCN)NC(=O)[C@H](C(C)C)NC(=O)[C@H](CC(C)C)NC(=O)[C@H](CCCCN)NC(=O)[C@@H]1CCCN1C(=O)[C@@H](Cc1ccccc1)NC(=O)[C@H](C(C)C)NC(=O)[C@H](CCCCN)NC(=O)[C@H](CC(C)C)NC(=O)[C@H](CCCCN)NC(=O)[C@H](C(C)C)NC2=O` [Peptide 18] (VKLKV[dF]PKLVKV; linker N-C via X2), in data set [1], the “LD50 (open)^1h” value is 0.9 ± 0.4 µg/mL, the “LD50 (open)^3h” value came out at 0.9 ± 0.4 µg/mL and the “LD50 (open)^24h” value is reported as 0.4 ± 0.2 µg/mL. Besides, in data set [2] (value ± STD), the “LD50 (opened)^1h” value was 12.3 ± 1.5 µg/mL and the “LD50 (opened)^24h” value came out at 12.3 ± 1.5 µg/mL. In addition, the “LD50(closed)^24h/LD50(open)^24h ratio” value in data set [2] is on record as 30.8. The “LD50 (closed)^24h” value in data set [2] (setting [4]) is 12.3 ± 1.5 µg/mL.

With `Cc1sc2cc1C1=C(CCC1)c1cc(sc1C)C(=O)[C@@H]1CCCN1C(=O)[C@H](C(C)C)NC(=O)[C@H](CCCN)NC(=O)[C@H](C(C)C)NC(=O)[C@@H]1CCCN1C(=O)[C@@H](Cc1ccccc1)NC(=O)[C@H](C(C)C)NC(=O)[C@H](CCCN)NC(=O)[C@H](CCNC(=O)C(C)C)NC2=O` [Peptide 8] ([Dab](Isobutyryl)[Orn]V[dF]PV[Orn]V; linker N-C via X2), in data set [1], the “LD50 (open)^1h” value is recorded as 12.0 ± 0.8 µg/mL, the “LD50 (open)^3h” value amounted to 5.7 ± 0.4 µg/mL and the “LD50 (open)^24h” value came out at 3.9 ± 1.5 µg/mL. For the same molecule, in data set [2] (value ± STD), the “LD50 (opened)^1h” value is 9.6 ± 5.6 µg/mL and the “LD50 (opened)^24h” value amounted to 3.0 ± 2.7 µg/mL. Also, in data set [2], the “LD50(closed)^24h/LD50(open)^24h ratio” value was 121 and 121.2.

In the case of `Cc1sc2cc1C1=C(CCC1)c1cc(sc1C)C(=O)[C@@H]1CCCN1C(=O)[C@H](C)NC(=O)[C@H](CCCN)NC(=O)[C@H](C(C)C)NC(=O)[C@@H]1CCCN1C(=O)[C@@H](Cc1ccccc1)NC(=O)[C@H](CC(C)C)NC(=O)[C@H](CCCN)NC(=O)[C@H](C)NC2=O` [Peptide 4] (A[Orn]L[dF]PV[Orn]A; linker N-C via X2), in data set [1], the “LD50 (open)^1h” value was found to be 69.8 ± 10.5 µg/mL, the “LD50 (open)^3h” value was found to be 40.6 ± 11.2 µg/mL and the “LD50 (open)^24h” value is on record as 19.0 ± 1.3 µg/mL. Moreover, in data set [2] (value ± STD), the “LD50 (opened)^1h” value was found to be 51.0 ± 7.7 µg/mL and the “LD50 (opened)^24h” value was found to be 12.9 ± 1.9 µg/mL. Moreover, the “LD50(closed)^24h/LD50(open)^24h ratio” value in data set [2] turned out to be 10.4.

The values are drawn from PMC6964649, “Light-controllable dithienylethene-modified cyclic peptides: photoswitching the in vivo toxicity in zebrafish embryos” (Beilstein Journal of Organic Chemistry, 2020).
